The source made the active and inactive calls. No cut-off for these calls is given here.
Key:
Assay type in all cases: functional, organism-based
Mus musculus [1] = assay: (§1) Protection against tunicamycin-induced liver injury-mediated hepatic metabolic disorders in C57BL/6 mouse assessed as inhibition of lipid metabolic disorders by measuring increase in plasma LDL-C level at 75 to 300 mg/kg, ig administered for 3 days and on day 3 administered with tunicamycin after 2 hrs and measured after 24 hrs; conditions: dose 75-300 mg/kg, time 4.0 day
Mus musculus [2] = assay: (§2) Protection against tunicamycin-induced liver injury-mediated hepatic metabolic disorders in C57BL/6 mouse assessed as increase in PPARgamma1 gene expression at 75 to 300 mg/kg, ig administered for 3 days and on day 3 administered with tunicamycin after 2 hrs and measured after 24 hrs by RT-qPCR analysis; conditions: dose 75-300 mg/kg, time 4.0 day
Mus musculus [3] = assay: Protection against tunicamycin-induced ER stress in C57BL/6 mouse assessed as downregulation of GRP78 protein expression in liver at 150 mg/kg, ig administered for 3 days and on day 3 administered with tunicamycin after 2 hrs and measured after 24 hrs by western blot analysis; conditions: time 4.0 day
Mus musculus [4] = assay: Protection against tunicamycin-induced liver injury-mediated hepatic metabolic disorders in C57BL/6 mouse assessed as LDL-C level in liver at 75 to 300 mg/kg, ig administered for 3 days and on day 3 administered with tunicamycin after 2 hrs and measured after 24 hrs; conditions: dose 75-300 mg/kg, time 4.0 day
Mus musculus [5] = assay: Protection against tunicamycin-induced liver injury-mediated hepatic metabolic disorders in C57BL/6 mouse assessed as TC level in liver at 75 to 300 mg/kg, ig administered for 3 days and on day 3 administered with tunicamycin after 2 hrs and measured after 24 hrs; conditions: dose 75-300 mg/kg, time 4.0 day
Mus musculus [6] = assay: Protection against tunicamycin-induced ER stress in C57BL/6 mouse assessed as downregulation of CHOP gene expression in liver at 150 mg/kg, ig administered for 3 days and on day 3 administered with tunicamycin after 2 hrs and measured after 24 hrs by RT-qPCR analysis; conditions: time 4.0 day
Mus musculus [7] = assay: Reduction in plasma albumin level in tunicamycin-induced liver injury C57BL/6 mouse model at 75 to 300 mg/kg, ig administered for 3 days and on day 3 administered with tunicamycin after 2 hrs and measured after 24 hrs; conditions: dose 75-300 mg/kg, time 4.0 day
Mus musculus [8] = assay: Protection against tunicamycin-induced liver injury-mediated hepatic metabolic disorders in C57BL/6 mouse assessed as increase in SCD1 gene expression at 75 to 300 mg/kg, ig administered for 3 days and on day 3 administered with tunicamycin after 2 hrs and measured after 24 hrs by RT-qPCR analysis; conditions: dose 75-300 mg/kg, time 4.0 day
Mus musculus [9] = assay: Protection against tunicamycin-induced UPR response in C57BL/6 mouse assessed as downregulation of PERK protein expression in liver at 150 mg/kg, ig administered for 3 days and on day 3 administered with tunicamycin after 2 hrs and measured after 24 hrs by western blot analysis; conditions: time 4.0 day
Mus musculus [10] = assay: Protection against tunicamycin-induced liver injury-mediated hepatic metabolic disorders in C57BL/6 mouse assessed as increase in CYP7A1 gene expression at 75 to 300 mg/kg, ig administered for 3 days and on day 3 administered with tunicamycin after 2 hrs and measured after 24 hrs by RT-qPCR analysis; conditions: dose 75-300 mg/kg, time 4.0 day
Mus musculus [11] = assay: Protection against tunicamycin-induced gut microbiota dysbiosis in C57BL/6 mouse assessed as increase in proteobacteria abundance in colon at 75 to 300 mg/kg, ig administered for 3 days and on day 3 administered with tunicamycin after 2 hrs and measured after 24 hrs; conditions: dose 75-300 mg/kg, time 4.0 day
Mus musculus [12] = assay: Protection against tunicamycin-induced ER stress-mediated liver injury in C57BL/6 mouse assessed as plasma ALT level at 75 to 300 mg/kg, ig administered for 3 days and on day 3 administered with tunicamycin after 2 hrs and measured after 24 hrs; conditions: dose 75-300 mg/kg, time 4.0 day
Mus musculus [13] = assay: Protection against tunicamycin-induced liver injury-mediated hepatic metabolic disorders in C57BL/6 mouse assessed as increase in FXR gene expression at 75 to 300 mg/kg, ig administered for 3 days and on day 3 administered with tunicamycin after 2 hrs and measured after 24 hrs by RT-qPCR analysis; conditions: dose 75-300 mg/kg, time 4.0 day
Mus musculus [14] = assay: as §1, with “decrease” for “increase”, “liver TG” for “plasma LDL-C”; conditions: dose 75-300 mg/kg, time 4.0 day
Mus musculus [15] = assay: Protection against tunicamycin-induced UPR response in C57BL/6 mouse assessed as downregulation of phosphorylated eIF2alpha protein expression in liver at 150 mg/kg, ig administered for 3 days and on day 3 administered with tunicamycin after 2 hrs and measured after 24 hrs by western blot analysis; conditions: time 4.0 day
Mus musculus [16] = assay: Protection against tunicamycin-induced gut microbiota dysbiosis in C57BL/6 mouse assessed as decrease in ratio of Prevotellaceae-to-Erysipelotrichaceae in colon at 75 to 300 mg/kg, ig administered for 3 days and on day 3 administered with tunicamycin after 2 hrs and measured after 24 hrs; conditions: dose 75-300 mg/kg, time 4.0 day
Mus musculus [17] = assay: Protection against tunicamycin-induced ER stress-mediated liver injury in C57BL/6 mouse assessed as plasma AST level at 75 to 300 mg/kg, ig administered for 3 days and on day 3 administered with tunicamycin after 2 hrs and measured after 24 hrs; conditions: dose 75-300 mg/kg, time 4.0 day
Mus musculus [18] = assay: Protection against tunicamycin-induced UPR response in C57BL/6 mouse assessed as downregulation of PERK gene expression in liver at 150 mg/kg, ig administered for 3 days and on day 3 administered with tunicamycin after 2 hrs and measured after 24 hrs by RT-qPCR analysis; conditions: time 4.0 day
Mus musculus [19] = assay: as §1, with “in plasma VLDL-C level at” for “in plasma LDL-C level at”, “24 hrs by ELISA” for “24 hrs”; conditions: dose 75-300 mg/kg, time 4.0 day
Mus musculus [20] = assay: as §1, with “TG” for “LDL-C”; conditions: dose 75-300 mg/kg, time 4.0 day
Mus musculus [21] = assay: Effect on Akt protein expression in liver of tunicamycin-induced liver injury C57BL/6 mouse model at 75 to 300 mg/kg, ig administered for 3 days and on day 3 administered with tunicamycin after 2 hrs and measured after 24 hrs in presence of insulin by western blot analysis; conditions: dose 75-300 mg/kg, time 4.0 day
Mus musculus [22] = assay: Protection against tunicamycin-induced gut microbiota dysbiosis in C57BL/6 mouse assessed as decrease in prevotellaceae-abundance in colon at 75 to 300 mg/kg, ig administered for 3 days and on day 3 administered with tunicamycin after 2 hrs and measured after 24 hrs; conditions: dose 75-300 mg/kg, time 4.0 day
Mus musculus [23] = assay: as §2, with “reduction” for “increase”, “FGF21” for “PPARgamma1”, “expression in liver” for “expression”; conditions: dose 75-300 mg/kg, time 4.0 day
Mus musculus [24] = assay: as §1, with “TC” for “LDL-C”; conditions: dose 75-300 mg/kg, time 4.0 day
Mus musculus [25] = assay: Protection against tunicamycin-induced liver injury-mediated hepatic metabolic disorders in C57BL/6 mouse assessed as HDL-C level in liver at 75 to 300 mg/kg, ig administered for 3 days and on day 3 administered with tunicamycin after 2 hrs and measured after 24 hrs; conditions: dose 75-300 mg/kg, time 4.0 day
Mus musculus [26] = assay: Protection against tunicamycin-induced gut microbiota dysbiosis in C57BL/6 mouse assessed as increase in Epsilonbacteraeota-abundance in colon at 75 to 300 mg/kg, ig administered for 3 days and on day 3 administered with tunicamycin after 2 hrs and measured after 24 hrs; conditions: dose 75-300 mg/kg, time 4.0 day
Mus musculus [27] = assay: Protection against tunicamycin-induced gut microbiota dysbiosis in C57BL/6 mouse assessed as increase in Erysipelotrichaceae- abundance in colon at 75 to 300 mg/kg, ig administered for 3 days and on day 3 administered with tunicamycin after 2 hrs and measured after 24 hrs; conditions: dose 75-300 mg/kg, time 4.0 day
Mus musculus [28] = assay: as §2, with “ACCalpha1” for “PPARgamma1”; conditions: dose 75-300 mg/kg, time 4.0 day
Mus musculus [29] = assay: Protection against tunicamycin-induced ER stress in C57BL/6 mouse assessed as downregulation of CHOP protein expression in liver at 150 mg/kg, ig administered for 3 days and on day 3 administered with tunicamycin after 2 hrs and measured after 24 hrs by western blot analysis; conditions: time 4.0 day
Mus musculus [30] = assay: Protection against tunicamycin-induced liver injury-mediated hepatic metabolic disorders in C57BL/6 mouse assessed as reduction in FGF21 level in serum at 75 to 300 mg/kg, ig administered for 3 days and on day 3 administered with tunicamycin after 2 hrs and measured after 24 hrs by ELISA; conditions: dose 75-300 mg/kg, time 4.0 day
Mus musculus [31] = assay: as §1, with “HDL-C” for “LDL-C”; conditions: dose 75-300 mg/kg, time 4.0 day
Mus musculus [32] = assay: Protection against tunicamycin-induced UPR response in C57BL/6 mouse assessed as downregulation of ATF6 gene expression in liver at 150 mg/kg, ig administered for 3 days and on day 3 administered with tunicamycin after 2 hrs and measured after 24 hrs by RT-qPCR analysis; conditions: time 4.0 day
Mus musculus [33] = assay: Protection against tunicamycin-induced liver injury-mediated hepatic metabolic disorders in C57BL/6 mouse assessed as increase in phosphorylated Akt level in liver at 150 mg/kg, ig administered for 3 days and on day 3 administered with tunicamycin after 2 hrs and measured after 24 hrs in presence of insulin by western blot analysis; conditions: time 4.0 day
Mus musculus [34] = assay: Protection against tunicamycin-induced ER stress in C57BL/6 mouse assessed as downregulation of GRP78 gene expression in liver at 150 mg/kg, ig administered for 3 days and on day 3 administered with tunicamycin after 2 hrs and measured after 24 hrs by RT-qPCR analysis; conditions: time 4.0 day
Mus musculus [35] = assay: Protection against tunicamycin-induced UPR response in C57BL/6 mouse assessed as downregulation of IRE1alpha protein expression in liver at 150 mg/kg, ig administered for 3 days and on day 3 administered with tunicamycin after 2 hrs and measured after 24 hrs by western blot analysis; conditions: time 4.0 day
Mus musculus [36] = assay: (§3) Protection against tunicamycin-induced liver injury-mediated hepatic metabolic disorders in C57BL/6 mouse assessed as increase in CD36 gene expression at 150 mg/kg, ig administered for 3 days and on day 3 administered with tunicamycin after 2 hrs and measured after 24 hrs by RT-qPCR analysis; conditions: time 4.0 day
Mus musculus [37] = assay: (§4) Protection against tunicamycin-induced ER stress-mediated liver injury in C57BL/6 mouse assessed as normal liver morphology at 75 to 300 mg/kg, ig administered for 3 days and on day 3 administered with tunicamycin after 2 hrs and measured after 24 hrs; conditions: dose 75-300 mg/kg, time 4.0 day
Mus musculus [38] = assay: Protection against tunicamycin-induced gut microbiota dysbiosis in C57BL/6 mouse assessed as increase in Pediococcus-pentosaceus abundance in colon at 150 mg/kg, ig administered for 3 days and on day 3 administered with tunicamycin after 2 hrs and measured after 24 hrs by LEfse analysis; conditions: time 4.0 day
Mus musculus [39] = assay: as §4, with “normal liver histology at 75” for “normal liver morphology at 75”, “24 hrs by Hematoxylin-eosin staining based microscopic analysis” for “24 hrs”; conditions: dose 75-300 mg/kg, time 4.0 day
Mus musculus [40] = assay: as §3, with “reduction” for “increase”, “TRB3” for “CD36”, “expression in liver” for “expression”; conditions: time 4.0 day
Mus musculus [41] = assay: as §2, with “PPARgamma2” for “PPARgamma1”; conditions: dose 75-300 mg/kg, time 4.0 day

COc1ccc2cc3[n+](cc2c1OC)CCc1cc2c(cc1-3)OCO2
Activity (Mus musculus [1]): Active | Activity (Mus musculus [2]): inactive | Activity (Mus musculus [3]): Active | Activity (Mus musculus [4]): inactive | Activity (Mus musculus [5]): inactive | Activity (Mus musculus [6]): Active | inhibition (Mus musculus [7]): Active | Activity (Mus musculus [8]): inactive | Activity (Mus musculus [9]): Active | Activity (Mus musculus [10]): inactive | Activity (Mus musculus [11]): Active | Activity (Mus musculus [12]): inactive | Activity (Mus musculus [13]): inactive | Activity (Mus musculus [14]): Active | Activity (Mus musculus [15]): Active | Activity (Mus musculus [16]): Active | Activity (Mus musculus [17]): inactive | Activity (Mus musculus [18]): Active | Activity (Mus musculus [19]): Active | Activity (Mus musculus [20]): Active | Activity (Mus musculus [21]): inactive | Activity (Mus musculus [22]): Active | Activity (Mus musculus [23]): Active | Activity (Mus musculus [24]): Active | Activity (Mus musculus [25]): inactive | Activity (Mus musculus [26]): Active | Activity (Mus musculus [27]): Active | Activity (Mus musculus [28]): inactive | Activity (Mus musculus [29]): Active | Activity (Mus musculus [30]): Active | Activity (Mus musculus [31]): Active | Activity (Mus musculus [32]): Active | Activity (Mus musculus [33]): Active | Activity (Mus musculus [34]): Active | Activity (Mus musculus [35]): Active | Activity (Mus musculus [36]): Active | Activity (Mus musculus [37]): Active | Activity (Mus musculus [38]): Active | Activity (Mus musculus [39]): Active | Activity (Mus musculus [40]): Active | Activity (Mus musculus [41]): inactive

From ChEMBL document CHEMBL5233280, “Berberine improves liver injury induced glucose and lipid metabolic disorders via alleviating ER stress of hepatocytes and modulating gut microbiota in mice” (Bioorg Med Chem, 2021)
